Test results reported in patent US6825193B2, “Citric acid salt of a therapeutic compound and pharmaceutical compositions thereof” (Pfizer Inc., priority 2001, dated 2004).
Entries after “also recorded” stand apart in the source; their conditions may differ. Where a name gives a salt, the structure may show the parent alone.

Legend:
Format in all cases: physicochemical
[1] = Hygroscopicity on exposure to 90% relative humidity in a moisture chamber
[2] = Solid state stability (light, elevated temperature, high humidity challenges); details: elevated temperatures
[3] = Compatibility with drug product formulation excipients
[4] = Aqueous solubility and native pH in aqueous solution

hygroscopicity (in words) [1]: only slightly hygroscopic
hygroscopicity ([1]; at 90% relative humidity): approximately 1.27%
hygroscopicity ([1]; on exposure to 90% relative humidity in a moisture chamber): approximately 1.27 % wt/wt
aqueous solubility (in words) [4]: high aqueous solubility
native pH in aqueous solution ([4]; aqueous solution at solubility 1.3 mg/ml): 3.37
solubility ([4]; water, native pH 3.37): 1300 µg/mL
Compound: CN1CCN(c2ccccc2/C=C2\SCCN(c3ccc(Cl)c(Cl)c3)C2=O)CC1 [citrate salt, 4-(3,4-dichlorophenyl)-2-[2-(4-methylpiperazin-1-yl)-benzylidene]-thiomorpholin-3-one]
solid state stability (in words) [2]: excellent solid state stability; also recorded: superior to previously known salts
inertness / compatibility towards common formulation excipients (in words) [3]: relative inertness towards common excipients; also recorded: superior to previously known salts
